Test results taken from patent publication US20130158075A1, “HETEROCYCLIC COMPOUNDS AS DGAT1 INHIBITORS” (PIRAMAL ENTERPRISES LIMITED, priority 2010, published 2013).
Counter-ions that a name gives are not always drawn.

Molecular target: T1, hDGAT1 (Homo sapiens, UniProt O75907)
T1 construct: made in house; host or cells: Sf9 insect cells (baculovirus); microsomal fraction
T1 sequence (O75907 1-488): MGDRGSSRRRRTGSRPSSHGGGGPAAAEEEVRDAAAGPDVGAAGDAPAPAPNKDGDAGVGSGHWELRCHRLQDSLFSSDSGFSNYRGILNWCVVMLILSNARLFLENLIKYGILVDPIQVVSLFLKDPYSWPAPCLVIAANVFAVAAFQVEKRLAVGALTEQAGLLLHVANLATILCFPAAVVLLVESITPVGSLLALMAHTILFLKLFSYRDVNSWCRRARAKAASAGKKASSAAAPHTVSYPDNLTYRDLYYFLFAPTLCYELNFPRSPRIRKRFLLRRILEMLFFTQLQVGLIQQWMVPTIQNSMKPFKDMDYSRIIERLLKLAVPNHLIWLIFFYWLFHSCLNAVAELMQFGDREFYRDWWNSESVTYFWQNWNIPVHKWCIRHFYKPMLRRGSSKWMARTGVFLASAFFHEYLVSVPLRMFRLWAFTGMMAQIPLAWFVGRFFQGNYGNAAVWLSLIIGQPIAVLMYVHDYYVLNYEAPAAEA
Assay: In-vitro DGAT1 assay with hDGAT1 microsomes from Sf9 cells (14C oleoyl CoA, scintillation counting)
Assay type: biochemical
Conditions: at 1 μM
Outline: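 Radiolabelled triglyceride formation was measured: heptane extracts were scintillation-counted after a 10-min, 37 °C reaction stopped with alkaline ethanol. Enzyme was human DGAT1 in baculovirus-infected Sf9 microsomal membranes; substrates were 14C oleoyl-CoA plus dioleoylglycerol. Runs were duplicated, and inhibition (%) was related to nM compound concentration.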

Percentage inhibition of hDGAT1	SMILES
++ (>50 % Inhibition)	CC(C)(O)CC1CCC(c2ncc(-c3ccc(NC(=O)Nc4cc(F)c(F)cc4F)cc3)s2)CC1 (stereo not drawn) [Example 409]

Same assay, conditions: read-out: Percentage inhibition of hDGAT1

SMILES	inhibition at 1 µM [%]
O=C(O)CN1CCC(c2ncc(-c3ccc(NC(=O)Nc4ccc(F)cc4F)cc3)s2)CC1 [Example 433, 2-(4-(5-(4-(3-(2,4-Difluorophenyl)ureido)phenyl)thiazol-2-yl)piperidin-1-yl)acetic acid]	> 50
O=C(O)CN1CCC(c2ncc(-c3ccc(NC(=O)Nc4cc(F)c(F)cc4F)cc3)s2)CC1 [Example 435, 2-(4-(5-(4-(3-(2,4,5-Trifluorophenyl)ureido)phenyl)thiazol-2-yl)piperidin-1-yl)acetic acid]	> 50
O=C(O)CN1CCC(c2ncc(-c3ccc(NC(=O)Nc4ccccc4C(F)(F)F)cc3)s2)CC1 [Example 437, 2-(4-(5-(4-(3-(2-(Trifluoromethyl)phenyl)ureido)phenyl)thiazol-2-yl)piperidin-1-yl)acetic acid]	> 50
O=C(O)CN1CCC(c2ncc(-c3ccc(NC(=O)Nc4ccc(F)c(F)c4F)cc3)s2)CC1 [Example 439, 2-(4-(5-(4-(3-(2,3,4-Trifluorophenyl)ureido)phenyl)thiazol-2-yl)piperidin-1-yl)acetic acid]	20 to 50
CC(C(=O)O)N1CCC(c2ncc(-c3ccc(NC(=O)Nc4cc(F)c(F)cc4F)cc3)s2)CC1 (stereo not drawn) [Example 451, 2-(4-(5-(4-(3-(2,4,5-Trifluorophenyl)ureido)phenyl)thiazol-2-yl)piperidin-1-yl)propanoic acid]	> 50
CC(C(=O)O)N1CCC(c2ncc(-c3ccc(NC(=O)Nc4ccccc4F)cc3)s2)CC1 (stereo not drawn) [Example 453, 2-(4-(5-(4-(3-(2-Fluorophenyl)ureido)phenyl)thiazol-2-yl)piperidin-1-yl) propanoic acid]	> 50
CC(C(=O)O)N1CCC(c2ncc(-c3ccc(NC(=O)Nc4ccccc4Cl)cc3)s2)CC1 (stereo not drawn) [Example 455, 2-(4-(5-(4-(3-(2-Chlorophenyl)ureido)phenyl)thiazol-2-yl)piperidin-1-yl)propanoic acid]	> 50
CC(C(=O)O)N1CCC(c2ncc(-c3ccc(NC(=O)Nc4c(F)cc(F)cc4F)cc3)s2)CC1 (stereo not drawn) [Example 459, 2-(4-(5-(4-(3-(2,4,6-Trifluorophenyl)ureido)phenyl)thiazol-2-yl)piperidin-1-yl)propanoic acid]	> 50
CC(C)(C)OC(=O)N1CCC(c2ncc(-c3ccc(NC(=O)Nc4ccccc4F)cc3)s2)CC1 [Example 475, t-Butyl 4-(5-(4-(3-(2-fluorophenyl)ureido)phenyl)thiazol-2-yl)piperidine-1-carboxylate]	20 to 50
CC(C)(C)OC(=O)N1CCC(c2ncc(-c3ccc(NC(=O)Nc4ccc(F)cc4F)cc3)s2)CC1 [Example 477, t-Butyl 4-(5-(4-(3-(2,4-difluorophenyl)ureido)phenyl)thiazol-2-yl)piperidine-1-carboxylate]	20 to 50
CC(C)(C)OC(=O)N1CCC(c2ncc(-c3ccc(NC(=O)Nc4c(F)cc(F)cc4F)cc3)s2)CC1 [Example 479, t-Butyl 4-(5-(4-(3-(2,4,6-trifluorophenyl)ureido)phenyl)thiazol-2-yl)piperidine-1-carboxylate]	20 to 50
O=C(Nc1ccc(-c2cnc(C3CCN(S(=O)(=O)C(F)(F)F)CC3)s2)cc1)Nc1ccccc1F [Example 483, 1-(2-Fluorophenyl)-3-(4-(2-(1-((trifluoromethyl)sulfonyl)piperidin-4-yl)thiazol-5-yl)phenyl)urea]	20 to 50
O=C(Nc1ccc(-c2cnc(C3CCN(S(=O)(=O)C(F)(F)F)CC3)s2)cc1)Nc1ccccc1Cl [Example 484, 1-(2-Chlorophenyl)-3-(4-(2-(1-((trifluoromethyl)sulfonyl)piperidin-4-yl)thiazol-5-yl)phenyl)urea]	20 to 50
O=C(Nc1ccc(-c2cnc(C3CCN(S(=O)(=O)C(F)(F)F)CC3)s2)cc1)Nc1ccc(F)cc1F [Example 485, 1-(2,4-Difluorophenyl)-3-(4-(2-(1-((trifluoromethyl)sulfonyl)piperidin-4-yl)thiazol-5-yl)phenyl)urea]	20 to 50
O=C(Nc1ccc(-c2cnc(C3CCN(S(=O)(=O)C(F)(F)F)CC3)s2)cc1)Nc1c(F)cc(F)cc1F [Example 486, 1-(4-(2-(1-((Trifluoromethyl)sulfonyl)piperidin-4-yl)thiazol-5-yl)phenyl)-3-(2,4,6-trifluorophenyl)urea]	20 to 50
O=C(Nc1ccc(-c2cnc(C3CCN(S(=O)(=O)C(F)(F)F)CC3)s2)cc1)Nc1cc(F)c(F)cc1F [Example 487, 1-(4-(2-(1-((Trifluoromethyl)sulfonyl)piperidin-4-yl)thiazol-5-yl)phenyl)-3-(2,4,5-trifluorophenyl)urea]	20 to 50
CS(=O)(=O)N1CCC(c2ncc(-c3ccc(NC(=O)Nc4c(F)cc(F)cc4F)cc3)s2)CC1 [Example 493, 1-(4-(2-(1-(Methylsulfonyl)piperidin-4-yl)thiazol-5-yl)phenyl)-3-(2,4,6-trifluorophenyl)urea]	20 to 50
CS(=O)(=O)N1CCC(c2ncc(-c3ccc(NC(=O)Nc4cc(F)c(F)cc4F)cc3)s2)CC1 [Example 494, 1-(4-(2-(1-(Methylsulfonyl)piperidin-4-yl)thiazol-5-yl)phenyl)-3-(2,4,5-trifluorophenyl)urea]	> 50
O=C(Nc1ccc(-c2cnc(C34CC5CC(CC(C(=O)O)(C5)C3)C4)s2)cc1)Nc1ccccc1F [Example 502, 3-(5-(4-(3-(2-Fluorophenyl)ureido)phenyl)thiazol-2-yl)adamantane-1-carboxylic acid]	> 50
O=C(Nc1ccc(-c2cnc(C34CC5CC(CC(C(=O)O)(C5)C3)C4)s2)cc1)Nc1c(F)cccc1F [Example 506, 3-(5-(4-(3-(2,6-Difluorophenyl)ureido)phenyl)thiazol-2-yl)adamantane-1-carboxylic acid]	> 50
O=C(Nc1ccc(-c2cnc(C34CC5CC(CC(C(=O)O)(C5)C3)C4)s2)cc1)Nc1cc(F)c(F)cc1F [Example 508, 3-(5-(4-(3-(2,4,5-Trifluorophenyl)ureido)phenyl)thiazol-2-yl)adamantane-1-carboxylic acid]	> 50

Next, values leading:

inhibition at 1 µM [%]	SMILES
> 50	NNC(=O)CC1CCC(c2ncc(-c3ccc(NC(=O)Nc4cc(F)cc(F)c4)cc3)s2)CC1 (stereo not drawn) [Example 410, 1-(3,5-Difluorophenyl)-3-(4-(2-(4-(2-hydrazinyl-2-oxoethyl)cyclohexyl)thiazol-5-yl)phenyl)urea]
> 50	Cc1nnc(CC2CCC(c3ncc(-c4ccc(N)cc4)s3)CC2)s1 (stereo not drawn) [Example 413, 4-(2-(4-((5-Methyl-1,3,4-thiadiazol-2-yl)methyl)cyclohexyl)thiazol-5-yl)aniline]
> 50	Cc1nnc(CC2CCC(c3ncc(-c4ccc(NC(=O)Nc5cc(F)c(F)cc5F)cc4)s3)CC2)s1 (stereo not drawn) [Example 414, 1-(4-(2-(4-((5-Methyl-1,3,4-thiadiazol-2-yl)methyl)cyclohexyl)thiazol-5-yl)phenyl)-3-(2,4,5-trifluorophenyl)urea]
> 50	O=C(O)CN1CCC(c2ncc(-c3ccc(NC(=O)Nc4ccccc4Cl)cc3)s2)CC1 [Example 429, 2-(4-(5-(4-(3-(2-Chlorophenyl)ureido)phenyl)thiazol-2-yl)piperidin-1-yl)acetic acid]
> 50	O=C(O)CN1CCC(c2ncc(-c3ccc(NC(=O)Nc4ccccc4F)cc3)s2)CC1 [Example 431, 2-(4-(5-(4-(3-(2-Fluorophenyl)ureido)phenyl)thiazol-2-yl)piperidin-1-yl)acetic acid]
20 to 50	O=C(Nc1ccc(-c2cnc(C3CCNCC3)s2)cc1)Nc1ccccc1Cl [Example 474, 1-(2-Chlorophenyl)-3-(4-(2-(piperidin-4-yl)thiazol-5-yl)phenyl)urea hydrochloride]
20 to 50	O=C(Nc1ccc(-c2cnc(C3CCNCC3)s2)cc1)Nc1ccccc1F [Example 476, 1-(2-Fluorophenyl)-3-(4-(2-(piperidin-4-yl)thiazol-5-yl)phenyl)urea hydrochloride]
20 to 50	O=C(Nc1ccc(-c2cnc(C3CCNCC3)s2)cc1)Nc1ccc(F)cc1F [Example 478, 1-(2,4-Difluorophenyl)-3-(4-(2-(piperidin-4-yl)thiazol-5-yl)phenyl)urea hydrochloride]
20 to 50	O=C(Nc1ccc(-c2cnc(C3CCNCC3)s2)cc1)Nc1cc(F)c(F)cc1F [Example 480, 1-(4-(2-(Piperidin-4-yl)thiazol-5-yl)phenyl)-3-(2,4,5-trifluorophenyl)urea hydrochloride]
20 to 50	CS(=O)(=O)N1CCC(c2ncc(-c3ccc(NC(=O)Nc4ccccc4Cl)cc3)s2)CC1 [Example 490, 1-(2-Chlorophenyl)-3-(4-(2-(1-(methylsulfonyl)piperidin-4-yl)thiazol-5-yl)phenyl)urea]
20 to 50	CS(=O)(=O)N1CCC(c2ncc(-c3ccc(NC(=O)Nc4ccccc4F)cc3)s2)CC1 [Example 491, 1-(2-Fluorophenyl)-3-(4-(2-(1-(methylsulfonyl)piperidin-4-yl)thiazol-5-yl)phenyl)urea]
